Reference: patent US6451735B1, “Glyphosate formulation” (priority 1998, dated 2002)
Counter-ions that a name gives are not always drawn.

Test: solubility in water and solution density of glyphosate salt
Type: physicochemical

## O=C(O)CNCP(=O)(O)O [potassium salt of glyphosate, N-phosphonomethylglycine]
Aqueous solution
  density of solutions: about 1.45 g/cc
water
  solubility in water: readily soluble
